Reference: PMC8772768, “Phytochemical Analysis and Dermo-Cosmetic Evaluation of Cymbidium sp. (Orchidaceae) Cultivation By-Products” (Antioxidants, 2021)
pIC50: −log10 of the molar value. ≈ marks a conversion by molar mass, not a printed value. Entries after “also recorded” stand apart in the source; their conditions may differ.

Legend:
collagenase = assay: Collagenase inhibition assay (fluorescent MMP-2 substrate); format: biochemical; conditions: for Collagenase inhibitory activity (in words): pure compounds at 25, 100, 250 μM; for Collagenase inhibition: mean ± SD, n = 3
Experimental: Collagenase inhibitory activity was determined by a previously described enzymatic method with slight modifications, based on the fluorescence of the MMP-2 substrate after its degradation by collagenase. In a 96-well black microplate, 50 μL of Tris-HCL buffer (10 mM, pH = 7.3), 25 μL of the tested sample (dissolved in Tris-HCL buffer), and 25 μL of collagenase solution (30 μg/mL dissolved in Tris-HCL buffer) were preincubated for 10 min at 37 °C, avoiding light exposure. Afterwards, 25 μL of MMP-2 substrate (50 μM dissolved in Tris-HCL buffer) were added, and the plate was incubated for an additional 30 min at 37 °C in the dark. The fluorescent intensity was measured at an excitation maximum of 320 nm and an emission maximum of 405 nm using a Tecan (Infinite 200 Pro series, Männedorf, Switzerland). Crude extracts were evaluated at 75 μg/mL, 150 μg/mL, and 300 μg/mL and pure compounds at 25 μΜ, 100 μΜ, and 250 μΜ, respectively, dissolved in PBS buffer, while the percentage of DMSO was under 5% of the total volume inside the plate. […] Experiments were performed in triplicate. The collagenase inhibitory activity was calculated by the following equation:Inhibition (%) = (Abs A − Abs B)/(Abs A) × 100 where Abs A = Abs Control − Abs Control Blank and Abs B = Abs Sample − Abs Sample Blank. Abs Control is the absorbance of Tris-HCL buffer with 5% DMSO, collagenase enzyme, and substrate, and Abs Sample is the absorbance of the tested sample in the Tris-HCL buffer, collagenase enzyme, and substrate. Blanks consist of all the above reagents except the enzyme.

[1] = system: human cell lung cancer (NCI-H187) cell line; parameters: method as in PMID 30450973; conditions: cited from earlier work
tyrosinase = tyrosinase (Agaricus bisporus, UniProt C7FF04); assay: Tyrosinase inhibition assay (L-DOPA, dopachrome at 475 nm); format: biochemical; conditions: pure compounds at 25, 100, 250 μM
Chain of tyrosinase (C7FF04 1-392): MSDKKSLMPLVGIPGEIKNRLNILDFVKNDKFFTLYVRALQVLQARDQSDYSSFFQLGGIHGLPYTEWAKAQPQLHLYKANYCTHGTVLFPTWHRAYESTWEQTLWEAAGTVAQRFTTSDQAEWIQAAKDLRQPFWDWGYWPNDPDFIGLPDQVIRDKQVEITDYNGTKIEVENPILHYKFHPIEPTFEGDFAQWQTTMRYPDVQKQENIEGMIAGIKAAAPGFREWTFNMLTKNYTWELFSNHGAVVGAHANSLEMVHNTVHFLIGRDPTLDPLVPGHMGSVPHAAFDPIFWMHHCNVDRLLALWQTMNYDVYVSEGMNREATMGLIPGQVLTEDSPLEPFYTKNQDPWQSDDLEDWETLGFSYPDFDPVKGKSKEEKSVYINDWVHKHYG

elastase = biological target: T1, elastase (Sus scrofa, UniProt P00772); assay: Elastase inhibition assay (N-succinyl-Ala-Ala-Ala-p-nitroanilide); format: biochemical; conditions: for Elastase inhibitory activity (in words): pure compounds at 25, 100, 250 μM
T1 construct: purchased Sigma-Aldrich
T1 sequence (P00772 27-266): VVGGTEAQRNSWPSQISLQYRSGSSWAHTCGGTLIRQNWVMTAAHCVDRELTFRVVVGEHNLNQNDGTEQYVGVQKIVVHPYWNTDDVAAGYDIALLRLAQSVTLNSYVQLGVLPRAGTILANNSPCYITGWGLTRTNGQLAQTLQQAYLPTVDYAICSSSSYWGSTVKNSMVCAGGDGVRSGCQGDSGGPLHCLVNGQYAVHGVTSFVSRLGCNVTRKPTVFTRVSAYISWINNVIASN
Experimental: Elastase inhibitory activity was measured by the presence of p-nitroaniline, after the reaction of the elastase enzyme with the substrate N-succinyl-Ala-Ala-Ala-p-nitroanilide, using a previously described protocol with minor modifications. At first, 70 μL of Trizma-base buffer (50 mM, pH = 7.5), 10 μL of the tested sample, and 5 μL of elastase solution (0.4725 U/mL dissolved in Trizma-base buffer) were mixed in the 96-well microplate and were incubated for 10 min at 37 °C, avoiding light exposure. Following this procedure, 15 μL of the substrate (2 mM dissolved in Trizma-base buffer) were added to every well of the plate, and then the plate was incubated for 30 min at 37 °C. The presence of p-nitroaniline was measured spectrophotometrically at 405 nm using a Tecan (Infinite 200 Pro series, Männedorf, Switzerland). The final tested concentrations of the extracts and pure compounds were 50 μg/mL, 100 μg/mL, 300 μg/mL, and 25 μΜ, 100 μΜ, 250 μΜ, respectively, dissolved in Trizma-base buffer, and the percentage of DMSO was under 5% of the total volume inside the plate. The negative control of the assay was 5% DMSO Trizma-base buffer, and the positive was Elastatinal (IC100 = 5 μg/mL and IC50 = 0.5 μg/mL), a strong irreversible competitive elastase inhibitor. Experiments were performed in triplicate.
The elastase inhibitory activity was calculated by the following equation:Inhibition (%) = (Abs A − Abs B)/(Abs A) × 100 where Abs A = Abs Control − Abs Control Blank and Abs B = Abs Sample − Abs Sample Blank. Abs Control is the absorbance of Trizma-base Buffer with 5% DMSO, elastase enzyme, and substrate, and Abs Sample is the absorbance of the tested sample in the Trizma-base buffer, elastase enzyme, and substrate. Blanks consist of all the above reagents except the enzyme.

[2] = DPPH radical scavenging assay; format: biochemical; conditions: dissolved in DMSO
Experimental: The final tested concentrations of the extracts were 5 μg/mL, 10 μg/mL, 20 μg/mL, 50 μg/mL, 100 μg/mL, 250 μg/mL, and 500 μg/mL dissolved in DMSO. […] Experiments were performed in triplicate. The antioxidant activity was calculated by the following equation:Inhibition (%) = (Abs A − Abs B)/(Abs A) × 100 where Abs A = Abs Control − Abs Control Blank and Abs B = Abs Sample − Abs Sample Blank. Abs Control is the absorbance of the negative control, and Abs Sample is the absorbance of the tested sample. Blanks consist of all the above reagents except the free radical reagent.

mushroom tyrosinase = system: mushroom tyrosinase; parameters: method as in PMID 18503477; conditions: cited from earlier work

With `COc1cc2ccc3cccc(O)c3c2c(OC)c1O` [Compound 1, bulbophyllanthrin] the “Collagenase inhibitory activity (in words)” value (collagenase) was “dose-dependent anti-collagenase activity”.
With `COc1ccc2c(ccc3cc(OC)c(O)c(OC)c32)c1` [Compound 2, 3-hydroxy-2,4,7-trimethoxy-phenanthrene] the Collagenase inhibition (collagenase; pure compound at 25 μM) was 12.62 ± 1.48%, the Collagenase inhibition (collagenase; pure compound at 100 μM) was 50.05 ± 2.67% and the Collagenase inhibition (collagenase; pure compound at 250 μM) was 72.73 ± 1.38%. The “Collagenase inhibitory activity (in words)” value (collagenase) was “dose-dependent anti-collagenase activity”.
In the case of `COc1cc2c(c(OC)c1O)-c1c(O)cccc1CC2` [Compound 4, marylaurencinol A], the “Collagenase inhibitory activity (in words)” value (collagenase) was “dose-dependent anti-collagenase activity”.
For `COC1=CC(=O)c2c(ccc3cccc(O)c23)C1=O` [Compound 5, 5-hydroxy-2-methoxy-1,4-phenanthrenequinone], the “Collagenase inhibitory activity (in words)” value (collagenase) is listed as “dose-dependent anti-collagenase activity” and the cytotoxic activity [1] is listed as “cytotoxic activity”.
With `COC1=CC(=O)C2=C(CCc3cccc(O)c32)C1=O` [Compound 6, ephemeranthroquinone B] the “Collagenase inhibitory activity (in words)” value (collagenase) was “dose-dependent anti-collagenase activity”.
In the case of `COc1cc(O)cc(CCc2ccc(O)c(OC)c2)c1` [Compound 8, gigantol], the “Tyrosinase inhibitory activity (in words)” value (tyrosinase) was “important anti-tyrosinase activity; also recorded: moderate, dose-dependent, inhibition activity”, the “Collagenase inhibitory activity (in words)” value (collagenase) was “non-active” and the “Elastase inhibitory activity (in words)” value (elastase) was “non-active”.
In the case of `COc1cc(CCc2cc(O)cc(O)c2)ccc1O` [Compound 9, tristin], the “Tyrosinase inhibitory activity (in words)” value (tyrosinase) was “important anti-tyrosinase activity; also recorded: moderate, dose-dependent, inhibition activity”, the “Collagenase inhibitory activity (in words)” value (collagenase) was “non-active” and the “Elastase inhibitory activity (in words)” value (elastase) was “non-active”.
In the case of `Cc1cc(O)cc(O)c1` [Compound 14, orcinol], the “Collagenase inhibitory activity (in words)” value (collagenase) was “inactive” and the “Elastase inhibitory activity (in words)” value (elastase) was “inactive”.
In the case of `CC(C)C[C@H](NC(=O)N[C@H](C(=O)N[C@@H](CCC(N)=O)C(=O)N[C@@H](C)C=O)[C@@H]1CCNC(=N)N1)C(=O)O` [Elastatinal, reference compound], the pIC50 (elastase; positive control) was 6.01 and the “IC100 (elastase, positive control)” value (elastase; positive control) was 5 µg/mL.
In the case of `O=C(O)c1cc(O)c(O)c(O)c1` [Gallic Acid], the “IC50 (DPPH, positive control)” value [2] was 100 µg/mL (≈ 588 µM).
Compound `CC(C)C[C@H](NP(=O)(O)O[C@@H]1O[C@@H](C)[C@H](O)[C@@H](O)[C@H]1O)C(=O)N[C@@H](Cc1c[nH]c2ccccc12)C(=O)O` [Phosphoramidon, reference compound] has a pIC50 (collagenase; positive control) of 5.16.
In the case of `Oc1ccc(/C=C/c2cc(O)cc(O)c2)cc1` [resveratrol], the “inhibitory effects on mushroom tyrosinase” value (mushroom tyrosinase) is given as “potent inhibitory effects”.
